Assay results reported in PMC9144902, “Metal(II) Complexes of the Fluoroquinolone Fleroxacin: Synthesis, Characterization and Biological Profile” (Pharmaceutics, 2022).

How the values were obtained:
CT DNA = assay: Study of the DNA-interaction by cyclic voltammetry; type: binding, calf; details: for Epa(f), anodic potential / Epc(f), cathodic potential / Epa(b), anodic potential / Epc(b), cathodic potential: M(II)/M(I), 1:2 DMSO/buffer; for Epa(f), anodic potential / Epc(f), cathodic potential: absence of CT DNA; for Epa(b), anodic potential / Epc(b), cathodic potential: presence of CT DNA; for Kr/Kox, ratio of equilibrium DNA-binding constants (reduced/oxidized form): eq. S6
Method: Cyclic voltammetry was used to study the interaction of the complexes with CT DNA. An intercalative interaction will induce a positive shift for the electrochemical potential(s) of metal oxidation/reduction, whereas, in the case of electrostatic interaction, a negative shift in the potential(s) may occur. The cyclic voltammograms of the complexes in a 1:2 DMSO:buffer solution (0.33 mM) were recorded in the absence and presence of the CT DNA solution (Figure S13). The predominant electrochemical feature for all complexes is a positive shift in the potential in the presence of CT DNA (ΔEpc/a = (–30)–(+127) mV). Consequently, the intercalative nature of the interaction of the complexes with DNA can be inferred from the presented data.
In order to evaluate further the redox behavior of the complexes, the corresponding equilibrium constants were calculated by determining the ratio Kr/Kox in accordance to Equation (S6), where Kox and Kr are the DNA-binding constants for the oxidized and reduced form, respectively, of the metal ions. For all complexes, the Kr/Kox ratio is close to or above 1 (Table 7), showing the selective binding of DNA to the […] form of the complexes. […]
S3.3 Study of the DNA –interaction by cyclic vol ta mmetry
Cyclic voltammetr y can be also used in order to calculate the corresponding equilibrium constant for the redox process. The ratio of the DNA–binding constants for the reduced (K r) and oxidized forms (Kox) of t he complex es (Kr/Kox) w as calculat ed according t o eq. S6:
Δ = = 0.059 × lo gEE E K oxoo o (eq. S6) […]
where Eo and Eo are the formal potentials of M(II)/M(I) redox couple in the fully bound and […]
free complexes, respectivel y. Kox and Kr are the binding constants for the binding of the oxidized and reduced species to DNA, respectivel y [S8] . […]

EB–DNA adduct (CT DNA) = assay: Competitive study with EB (EB–DNA fluorescence quenching); type: binding, calf; details: for Ksv, Stern–Volmer constant: EB–DNA adduct; for ΔI/Io, percentage of EB–DNA fluorescence quenching: [EB] = 20 μM, [DNA] = 26 μM, λexc 540 nm, λem 592 nm; for EB–DNA relative fluorescence emission intensity, % of the initial (I/Io): λemission = 592 nm, final value (up to), Figure S14; for kq, EB–DNA quenching constant: τo = 23 ns
Method: Ethidium bromide is a typical marker of intercalation because it can intercalate between adjacent DNA bases with its planar phenanthridine ring.
The fluorescence emission spectra of the EB–DNA adduct ([EB] = 20 μM, [DNA] = 26 μM) in the absence and presence of the compounds were recorded at increasing amounts of the respective compounds. […] As a conclusion, an intercalative interaction of the complexes with CT DNA can be proposed.
The values of the Stern–Volmer constants (Ksv) for the compounds were calculated using the linear Stern–Volmer equation (Equation (S2)) and were of the order of 10^5 M^−1 (Table 8), indicating tight binding of the complexes with DNA [61]. The Ksv values for the complexes are in the range found for a number of metal(II)–quinolone complexes, and complex 12 presents the highest Ksv value (Ksv = 7.25(±0.30) × 10^5 M^−1) among the compounds studied. In addition, the EB–DNA quenching constants (kq) for the compounds were calculated with Equation (S3), assuming τo = 23 ns as the fluorescence lifetime. The values of kq (Table 8) are much higher than the value of 10^10 M^−1s^−1, indicating a static mechanism of EB–DNA fluorescence quenching induced by the compounds, which can result from the formation of a new adduct apparently consisting of each complex and DNA [61].
In order to determine and confirm the DNA–binding mode of the compounds, a competitive study with EB as an intercalating marker is performed b y fluorescence emission spectroscopy.
Therefo re, the E B–displacing abilit y of the compounds from its EB –DN A conjugate was ex amined.
The DNA–EB adduct was prepared b y addition of 20 μM EB and 26 μM CT DNA in buffer solution (150 mM NaCl and 15 mM trisodium citrate at pH 7.0). The potential intercalation of the compounds between the DNA–bases was studied by the addition of a certain amount of the compound solution into the EB–DNA adduct solution. The influence of the compounds on the EB – DNA solution was monitored through the changes of the fluorescence emission spectra at excitation […]
wavelen gth (λex ) at 540 nm [S3]. […]
room temperature in solution or in the presence of DNA, under the same experimental conditions (λex = 540 nm). Bearing t hat in mind, the observed quenching of the EB–DNA solution is evidentl y associated to the displacement of EB from its EB–DNA adduct.
The quenching effici ency (KSV) for each compound was assessed according to the Stern – Volmer equation: Io =1+ k τ [Q] = 1+ K [Q], (eq. S2) [S3] where I0 and I = the fluorescence […]
emission intensities of EB–DNA in the absence and presence of the quencher, respectivel y, [Q] = the concentration of the quencher (i.e. compounds). KSV is obtained from t he Stern–Volmer plots b y the slope of the diagram I0/ I versus [Q]. Taking τ0 = 23 ns as the fluorescence lifetime of the EB– DNA s ystem [S5], the EB –DNA quenching constants (k q) of the compounds can be determined accordin g to eq.S3: K SV = kqτo . […]
[S2] Irgi, E.P.; Geromichalos, G.D.; Balala, S.; Kljun, J.; Kalogiannis, S.; Papadopoulos, A.; Turel, I.; Psomas, G. Cobalt(II) complexes with quinolone antimicrobial drug oxolinic acid: […]
[ S 5] Heller, D.P.; Greenstock, C.L. Fluorescence lifetime analysis of DNA intercalated ethidium bromide and quenching by free d ye. Biophys. Chem . 1994, 50, 305–312.

Structure (SMILES)	Epa(f), anodic potential (CT DNA)	Epc(f), cathodic potential (CT DNA)	Epa(b), anodic potential (CT DNA)	Epc(b), cathodic potential (CT DNA)	Kr/Kox, ratio of equilibrium DNA-binding constants (reduced/oxidized form) (CT DNA)	Ksv, Stern–Volmer constant (EB–DNA adduct (CT DNA))	ΔI/Io, percentage of EB–DNA fluorescence quenching (EB–DNA adduct (CT DNA))	EB–DNA relative fluorescence emission intensity, % of the initial (I/Io) (EB–DNA adduct (CT DNA))	kq, EB–DNA quenching constant (EB–DNA adduct (CT DNA))
CN1CCN(c2c(F)cc3c(=O)c(C(=O)[O-])cn(CCF)c3c2F)CC1.CN1CCN(c2c(F)cc3c(=O)c(C(=O)[O-])cn(CCF)c3c2F)CC1.[Cu+2] [complex 1, [Cu(flrx)2]]	−504 mV	−725 mV	−462 mV	−735 mV	1.31	2.18(±0.06) × 10^5 M^–1	62.2%	37.8%	9.47(±0.03) × 10^12 M^−1s^−1
CN1CCN(c2c(F)cc3c(=O)c(C(=O)[O-])cn(CCF)c3c2F)CC1.CN1CCN(c2c(F)cc3c(=O)c(C(=O)[O-])cn(CCF)c3c2F)CC1.O.O.[Mn+2] [complex 2, [Mn(flrx)2(H2O)2]]	−455 mV	−684 mV	−466 mV	−678 mV	0.96	6.07(±0.23) × 10^5 M^–1	74.4%	15.6%	2.64(±0.10) × 10^13 M^−1s^−1
CN1CCN(c2c(F)cc3c(=O)c(C(=O)[O-])cn(CCF)c3c2F)CC1.CN1CCN(c2c(F)cc3c(=O)c(C(=O)[O-])cn(CCF)c3c2F)CC1.CO.CO.[Co+2] [complex 4, [Co(flrx)2(MeOH)2]]	−483 mV	−724 mV	−455 mV	−735 mV	1.15	1.36(±0.03) × 10^5 M^–1	64.1%	35.9%	5.93(±0.14) × 10^12 M^−1s^−1
CN1CCN(c2c(F)cc3c(=O)c(C(=O)[O-])cn(CCF)c3c2F)CC1.CN1CCN(c2c(F)cc3c(=O)c(C(=O)[O-])cn(CCF)c3c2F)CC1.CO.CO.[Ni+2] [complex 5, [Ni(flrx)2(MeOH)2]]	−495 mV	−706 mV	−501 mV	−701 mV	0.99	2.33(±0.08) × 10^5 M^–1	56.9%	43.1%	1.01(±0.03) × 10^13 M^−1s^−1
CN1CCN(c2c(F)cc3c(=O)c(C(=O)[O-])cn(CCF)c3c2F)CC1.[Cl-].[Cu+2].c1ccc(-c2ccccn2)nc1 [complex 6, [Cu(flrx)(bipy)Cl]]	−450 mV	−710 mV	−323 mV	−740 mV	2.28	2.03(±0.05) × 10^5 M^–1	61.9%	38.1%	8.84(±0.21) × 10^12 M^−1s^−1
CN1CCN(c2c(F)cc3c(=O)c(C(=O)[O-])cn(CCF)c3c2F)CC1.[Cl-].[Cu+2].c1ccc(Nc2ccccn2)nc1 [complex 7, [Cu(flrx)(bipyam)Cl]]	−426 mV	−729 mV	−300 mV	−710 mV	3.41	3.44(±0.06) × 10^5 M^–1	62.7%	37.3%	1.50(±0.03) × 10^13 M^−1s^−1
CN1CCN(c2c(F)cc3c(=O)c(C(=O)[O-])cn(CCF)c3c2F)CC1.[Cl-].[Cu+2].c1cnc2c(c1)ccc1cccnc12 [complex 8, [Cu(flrx)(phen)Cl]]	−483 mV	−725 mV	−406 mV	−720 mV	2.00	3.25(±0.08) × 10^5 M^–1	66.4%	33.6%	1.41(±0.03) × 10^13 M^−1s^−1
CN1CCN(c2c(F)cc3c(=O)c(C(=O)[O-])cn(CCF)c3c2F)CC1.CN1CCN(c2c(F)cc3c(=O)c(C(=O)[O-])cn(CCF)c3c2F)CC1.[Mn+2].c1ccc(-c2ccccn2)nc1 [complex 9, [Mn(flrx)2(bipy)]]	−475 mV	−701 mV	−495 mV	−684 mV	0.97	3.31(±0.07) × 10^5 M^–1	73.8%	26.2%	1.44(±0.03) × 10^13 M^−1s^−1
CN1CCN(c2c(F)cc3c(=O)c(C(=O)[O-])cn(CCF)c3c2F)CC1.CN1CCN(c2c(F)cc3c(=O)c(C(=O)[O-])cn(CCF)c3c2F)CC1.[Mn+2].c1ccc(Nc2ccccn2)nc1 [complex 10, [Mn(flrx)2(bipyam)]]	−495 mV	−706 mV	−508 mV	−695 mV	0.98	5.92(±0.14) × 10^5 M^–1	81.1%	18.9%	2.57(±0.06) × 10^13 M^−1s^−1
CN1CCN(c2c(F)cc3c(=O)c(C(=O)[O-])cn(CCF)c3c2F)CC1.CN1CCN(c2c(F)cc3c(=O)c(C(=O)[O-])cn(CCF)c3c2F)CC1.[Mn+2].c1cnc2c(c1)ccc1cccnc12 [complex 11, [Mn(flrx)2(phen)]]	−501 mV	−706 mV	−499 mV	−700 mV	1.07	1.83(±0.03) × 10^5 M^–1	76.7%	23.3%	7.94(±0.14) × 10^12 M^−1s^−1
